Patent US20090075978A1, “SUBSTITUTED PROPIOLIC ACID AMIDES AND THEIR USE FOR PRODUCING DRUGS” (Grunenthal GmbH, priority 2005, published 2009)

Columns and labels:
[1] = molecular target: T1, mGluR5 receptor (pig) (Sus scrofa, UniProt I3LUI7); assay: [3H]-MPEP binding in the mGluR5 receptor binding assay (pig brain homogenate); conditions: 5 nM [3H]-MPEP; for IC50: pig brain homogenate
T1 construct: 450 μg of protein from brain homogenate is incubated; from tissue; host or cells: pig brain hemispheres without medulla, cerebellum and pons
T1 sequence (I3LUI7 19-1212): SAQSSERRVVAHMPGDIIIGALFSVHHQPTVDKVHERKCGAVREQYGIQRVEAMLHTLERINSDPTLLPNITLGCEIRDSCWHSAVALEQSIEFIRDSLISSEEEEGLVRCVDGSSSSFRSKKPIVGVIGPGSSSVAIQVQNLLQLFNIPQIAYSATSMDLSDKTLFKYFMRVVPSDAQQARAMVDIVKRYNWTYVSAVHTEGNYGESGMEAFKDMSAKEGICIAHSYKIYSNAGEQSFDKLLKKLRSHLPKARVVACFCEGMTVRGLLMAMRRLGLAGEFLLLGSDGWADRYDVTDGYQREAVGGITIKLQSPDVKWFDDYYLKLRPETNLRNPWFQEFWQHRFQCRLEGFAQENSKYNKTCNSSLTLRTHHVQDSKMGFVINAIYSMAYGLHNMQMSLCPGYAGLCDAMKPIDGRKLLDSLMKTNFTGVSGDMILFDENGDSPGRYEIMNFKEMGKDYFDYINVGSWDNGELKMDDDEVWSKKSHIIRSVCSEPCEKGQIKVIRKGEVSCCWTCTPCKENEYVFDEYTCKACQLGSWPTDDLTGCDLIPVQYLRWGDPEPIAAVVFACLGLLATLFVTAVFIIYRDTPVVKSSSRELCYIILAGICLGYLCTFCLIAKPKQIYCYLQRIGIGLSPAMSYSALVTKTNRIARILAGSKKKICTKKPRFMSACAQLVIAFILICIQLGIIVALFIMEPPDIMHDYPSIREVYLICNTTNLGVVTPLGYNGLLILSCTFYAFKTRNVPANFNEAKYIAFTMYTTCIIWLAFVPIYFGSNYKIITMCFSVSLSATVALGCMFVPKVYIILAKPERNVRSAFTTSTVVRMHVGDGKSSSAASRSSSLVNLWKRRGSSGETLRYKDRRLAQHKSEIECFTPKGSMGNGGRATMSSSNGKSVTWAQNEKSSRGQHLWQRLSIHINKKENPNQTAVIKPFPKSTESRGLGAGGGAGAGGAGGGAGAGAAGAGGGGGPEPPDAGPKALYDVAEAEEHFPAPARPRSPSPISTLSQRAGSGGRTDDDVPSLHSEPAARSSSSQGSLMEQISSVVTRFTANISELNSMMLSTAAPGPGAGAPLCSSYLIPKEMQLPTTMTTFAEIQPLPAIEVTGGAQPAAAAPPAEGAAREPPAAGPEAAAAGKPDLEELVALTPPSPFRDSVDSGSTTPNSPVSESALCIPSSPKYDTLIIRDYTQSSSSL
Description: I. Method for Determining the Inhibition of [^3H]-MPEP Binding in the mGluR5 Receptor Binding Assay
Pig brain homogenate is produced by homogenisation (Polytron Pt 3000, Kinematica AG, 10,000 revolutions per minute for 90 seconds) of pig brain hemispheres without medulla, cerebellum and pons in a buffer of pH 8.0 (30 mM Hepes, Sigma, order number H3375+1 tablet Complete Roche Diagnostics, order number 1836145 made up to 100 ml) in a ratio of 1:20 (brain weight/volume) and differential centrifugation at 900×g and 40,000×g. 450 μg of protein from brain homogenate is incubated in each case in 250 μl incubation batches in 96-well microtitre plates with 5 nM ^3[H]-MPEP (Tocris, order number R1212) (MPEP=[…]) and the compounds to be investigated ([…]) in the buffer (as above) at room temperature for 60 min.
The batches are then filtered with the assistance of a Brandel Cell Harvester (Brandel, Robotic 9600 model) on Unifilter plates with glass filter mats (Perkin Elmer, order number 6005177) and then washed 3 times with buffer (as above) using 250 μl per sample. The filter plates are then dried for 60 min at 55° C. Then 30 μl of Ultima Gold™ scintillating material (Packard BioScience, order number 6013159) is added per well and after 3 hours the samples are measured using the β counter (Microbeta, Perkin Elmer). Nonspecific binding is determined by the addition of 10 μM MPEP (Tocris, order number 1212).

[2] = molecular target: T2, mGluR5 receptor (human) (Homo sapiens, UniProt P41594); assay: Functional Ca2+ influx assay in the mGluR5 receptor assay (CHO-hmGluR5 cells, DHPG); assay type: cell-based; conditions: 10 μM DHPG, Ki=IC50/(1+(AGconc/EC50))
T2 construct: host or cells: CHO cells (CHO-hmGluR5), expression induced with doxycycline
T2 sequence (P41594 21-1212): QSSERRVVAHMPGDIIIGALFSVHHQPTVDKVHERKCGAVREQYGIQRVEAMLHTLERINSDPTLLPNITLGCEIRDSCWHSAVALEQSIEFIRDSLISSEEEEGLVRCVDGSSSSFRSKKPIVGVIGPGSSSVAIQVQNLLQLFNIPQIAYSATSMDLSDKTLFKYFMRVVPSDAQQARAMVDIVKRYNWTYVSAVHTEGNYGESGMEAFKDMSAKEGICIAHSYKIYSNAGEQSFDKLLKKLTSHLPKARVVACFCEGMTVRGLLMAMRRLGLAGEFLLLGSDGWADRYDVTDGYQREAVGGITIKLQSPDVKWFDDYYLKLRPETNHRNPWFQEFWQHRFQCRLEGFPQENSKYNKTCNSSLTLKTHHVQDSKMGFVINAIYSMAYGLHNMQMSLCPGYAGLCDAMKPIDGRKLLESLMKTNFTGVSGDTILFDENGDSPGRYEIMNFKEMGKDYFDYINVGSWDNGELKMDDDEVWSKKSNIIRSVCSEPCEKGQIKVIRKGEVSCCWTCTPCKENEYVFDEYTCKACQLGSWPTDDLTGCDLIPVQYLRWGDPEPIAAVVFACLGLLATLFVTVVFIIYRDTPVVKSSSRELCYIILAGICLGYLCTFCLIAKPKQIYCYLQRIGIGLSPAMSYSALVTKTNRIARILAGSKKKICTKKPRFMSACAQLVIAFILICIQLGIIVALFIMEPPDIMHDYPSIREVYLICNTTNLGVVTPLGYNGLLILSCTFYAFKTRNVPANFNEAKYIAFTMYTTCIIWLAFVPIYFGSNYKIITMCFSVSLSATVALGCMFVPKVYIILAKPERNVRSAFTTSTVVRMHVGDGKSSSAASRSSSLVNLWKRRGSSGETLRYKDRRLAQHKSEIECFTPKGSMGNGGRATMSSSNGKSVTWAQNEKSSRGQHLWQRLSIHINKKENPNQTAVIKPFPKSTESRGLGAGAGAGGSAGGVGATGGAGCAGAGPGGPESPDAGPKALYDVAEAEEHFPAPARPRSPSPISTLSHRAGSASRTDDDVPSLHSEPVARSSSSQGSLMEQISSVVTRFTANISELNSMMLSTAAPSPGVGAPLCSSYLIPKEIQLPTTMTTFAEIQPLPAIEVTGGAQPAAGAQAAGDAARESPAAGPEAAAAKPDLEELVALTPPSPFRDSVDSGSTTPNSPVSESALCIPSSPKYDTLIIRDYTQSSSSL
From the text: II. Method for Determining Ca^2+ Influx in the mGluR5 Receptor Assay
An agonistic and/or antagonistic substance action on the mGluR5 receptor of the rat species may be determined with the following assay. According to this assay, intracellular Ca^2+ release is quantified after activation of the mGluR5 receptor with the assistance of a Ca^2+-sensitive dye (type Fluo-4, Molecular Probes Europe BV, Leiden, Netherlands) in a FlexStation (Molecular Devices, Sunnyvale, USA).
Description of the Functional Ca^2+ Influx Assay
20,000 CHO-hmGluR5 cells/well (Euroscreen, Gosselies, Belgium) are pipetted out into 96 well plates (BD Biosciences, Heidelberg, Germany, Ref. 356640, clear bottom, 96 well, poly-D-lysine) and incubated overnight in HBSS buffer (Gibco No. 14025-050) with the following additives: 10% FCS (GIBCO, 10270-106) and doxycycline (BD Biosciences Clontech 631311 600 ng/ml).
For the purpose of functional investigation, the cells were loaded with 2 μM Fluo-4 and 0.01 vol. % Pluronic F127 (Molecular Probes Europe BV, Leiden, Netherlands) in HBSS buffer (Hank's buffered saline solution, Gibco Invitrogen GmbH, Karlsruhe, Germany) with Probenicid (Sigma P8761, 0.69 mg/ml) for 30 min at 37° C.
The cells are then washed 3 times with washing buffer (HBSS buffer, Gibco No. 14025-050, with Probenicid (Sigma P8761, 0.69 [mg]/ml) and then resuspended with the same buffer to make up to 100 μl. After 15 min the plates are transferred for determination of Ca^2+ measurements in the presence of DHPG ((S)-3,5-dihydroxyphenylglycine, Tocris Biotrend Chemikalien GmbH, Cologne, Germany, final DHPG concentration: 10 μM) and in the presence or absence of test substances into a FLuorometric Imaging Plate Reader (FLIPR, Molecular Devices, Sunnyvale, Calif.).
Ca^2+-dependent fluorescence is measured before and after addition of test substances. Quantification proceeds by measuring the highest fluorescence intensity over time.
After recording a fluorescence baseline for 10 s, 50 μl of test substance solution (various test substance concentrations in HBSS buffer with 1% DMSO and 0.02% Tween 20, Sigma) are added and the fluorescence signal is measured for 6 min. Then, 50 μl of DHPG solution ((S)-3,5-dihydroxyphenylglycine, Tocris Biotrend Chemikalien GmbH, Cologne, Germany, final DHPG concentration: 10 μM) are added and Ca^2+ influx is simultaneously measured for 60 s. The final DMSO concentration amounts to 0.25% and the final Tween 20 content amounts to 0.005%. The data are analysed with Microsoft Excel and GraphPad Prism. The dose-response curves are calculated with non-linear regression and IC50 values are determined. Each data point is determined in triplicate and IC50 values are averaged from a minimum of 2 independent measurements.
Ki values are calculated using the following formula: Ki=IC50/(1+(AGconc/EC50)).
AGconc=10 μM; EC50 corresponds to the DHPG concentration which is necessary for the semimaximal influx of Ca^2+.

[3] = system: pain response in rats; assay: Formaldehyde test in rats (phase 2, chronic pain component); assay type: in vivo
Description: III. Formaldehyde Test in Rats:
The formaldehyde test (Dubuisson, D. and Dennis, S. G., 1977, Pain, 4, 161-174) is a model of acute and chronic pain. A biphasic nociceptive response is induced in freely mobile test animals by a single formaldehyde injection into the dorsal side of a hind paw, said response being detected by the observation of three clearly distinguishable behaviour patterns. The response is in two phases: phase 1=immediate response (duration up to 10 min; paw shaking, licking), phase 2=late response (after a resting phase; likewise paw shaking, licking; duration up to 60 min). […] In the investigations presented here, it was the chronic pain component (phase 2) which was evaluated.
Formaldehyde is administered subcutaneously in a volume of 50 μl and a concentration of 5% into the dorsal side of the right hind paw of each animal. […] The specific behavioural changes, such as raising and shaking the paw, changes in weight bearing of the animal and biting and licking responses are observed and recorded over the observation period of 21 to 27 min after the formaldehyde injection. The various behaviours are summarised as a “pain rate” (PR), which is the calculated nociceptive response averaged over 3 min sub-intervals. […]

IC50 [1] [nM] | Ki [2] [nM] | mGluR5 receptor (pig) (10 μM) Inhibition (%) ([1]; 10 μM test compound, 450 μg protein from pig brain homogenate, 60 min, room temperature) | SMILES | ED50 ([3]; iv, rat, i.v., 30 min before formaldehyde) [mg/kg] | Formaldehyde test (rat) per os Reduction in nociceptive behaviour relative to control at 10 mg/kg [%] ([3]; per os, 10 mg/kg)
53 | 4.9 | – | CC1Cc2ccccc2CN1C(=O)C#Cc1cccc(Cl)c1 (stereo not drawn) [Example 19, 2-(3-(3-chlorophenyl)-propiolyl)-3-methyl-1,2,3,4-tetrahydro-isoquinoline] | – | –
180 | 11.5 | – | O=C(C#Cc1ccccc1)N1CCc2ccccc2C1 [Example 1, 2-(3-phenyl-propiolyl)-1,2,3,4-tetrahydro-isoquinoline] | – | –
23 | 1 | – | O=C(C#Cc1cccc(Cl)c1)N1CCc2ccccc2C1 [Example 5, 2-(3-(3-chlorophenyl)-propiolyl)-1,2,3,4-tetrahydro-isoquinoline] | – | –
5.4 | 1.2 | – | CC1c2ccccc2CCN1C(=O)C#Cc1cccc(Cl)c1 (stereo not drawn) [Example 18, 2-(3-(3-chlorophenyl)-propiolyl)-1-methyl-1,2,3,4-tetrahydro-isoquinoline] | 1.06 | 41
23 | 0.3 | – | O=C(C#Cc1cccc(Cl)c1)N1CCc2ccccc2CC1 [Example 12, 3-(3-(3-chlorophenyl)-propiolyl)-1,2,4,5-tetrahydrobenzo[d]azepine] | – | –
1.5 | 0.9 | – | COc1cccc2c1CCN(C(=O)C#Cc1cccc(Cl)c1)C2 [Example 30, 2-(3-(3-chlorophenyl)-propiolyl)-5-methoxy-1,2,3,4-tetrahydro-isoquinoline] | – | –
– | – | 83 | O=C(C#Cc1ccccc1F)N1CCc2ccccc2C1 [Example 37, 2-(3-(2-fluorophenyl)-propiolyl)-1,2,3,4-tetrahydro-isoquinoline] | – | –
